Laboratory results from patent US7091202B2, “4-arylspirocycloalkyl-2-aminopyrimidine carboxamide KCNQ potassium channel modulators” (Bristol-Myers Squibb Company, priority 2004, dated 2006).

Target: T1, hQ23 (HEK-293 cell line stably transfected with one of the members of the KCNQ family) (Homo sapiens, UniProt O43525+O43526)
T1 construct: expressed in transfected cells; host or cells: HEK-293, stably transfected
Test: Thallium flux assay for KCNQ channel blockers (FLIPR, BTC dye)
Type: cell-based
Conditions: Table 2; thallium flux, HEK-293
How it was run: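 FLIPR thallium flux readout (BTC dye, 2 μM AM ester) in stably transfected KCNQ HEK-293 cells, chloride-free HEPES buffer pH 7.3, Tl2SO4 stimulus. IC50s were fitted with a single-site logistic equation across 10 points at 1:3 dilutions, defined as 50% of positive-control block; minimal active concentration meant signal ≥4 SD over DMSO controls.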

T1 sequence (O43526 whole entry): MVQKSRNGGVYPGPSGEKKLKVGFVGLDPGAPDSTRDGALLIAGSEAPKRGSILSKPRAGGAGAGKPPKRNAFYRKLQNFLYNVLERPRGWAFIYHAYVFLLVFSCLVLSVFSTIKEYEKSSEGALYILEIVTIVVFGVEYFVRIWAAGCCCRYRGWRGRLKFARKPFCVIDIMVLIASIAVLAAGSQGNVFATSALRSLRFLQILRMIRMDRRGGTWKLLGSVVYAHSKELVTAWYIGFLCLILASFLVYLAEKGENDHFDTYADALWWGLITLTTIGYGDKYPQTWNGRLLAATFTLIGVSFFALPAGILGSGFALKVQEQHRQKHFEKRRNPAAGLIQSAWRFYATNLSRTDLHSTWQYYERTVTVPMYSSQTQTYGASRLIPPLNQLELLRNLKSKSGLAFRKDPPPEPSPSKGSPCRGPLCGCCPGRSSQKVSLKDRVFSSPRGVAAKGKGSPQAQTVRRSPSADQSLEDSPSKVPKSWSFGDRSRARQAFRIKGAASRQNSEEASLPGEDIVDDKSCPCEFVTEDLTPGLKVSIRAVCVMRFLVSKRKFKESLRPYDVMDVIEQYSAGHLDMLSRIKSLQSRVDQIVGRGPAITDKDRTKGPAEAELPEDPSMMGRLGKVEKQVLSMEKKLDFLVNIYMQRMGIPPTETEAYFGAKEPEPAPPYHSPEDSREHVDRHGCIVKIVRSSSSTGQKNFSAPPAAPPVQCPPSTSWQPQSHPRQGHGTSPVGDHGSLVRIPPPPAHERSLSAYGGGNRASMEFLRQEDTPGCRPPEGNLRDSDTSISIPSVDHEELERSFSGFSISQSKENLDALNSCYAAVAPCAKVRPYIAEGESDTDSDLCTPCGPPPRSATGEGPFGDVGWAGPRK
T1 sequence (O43525 whole entry): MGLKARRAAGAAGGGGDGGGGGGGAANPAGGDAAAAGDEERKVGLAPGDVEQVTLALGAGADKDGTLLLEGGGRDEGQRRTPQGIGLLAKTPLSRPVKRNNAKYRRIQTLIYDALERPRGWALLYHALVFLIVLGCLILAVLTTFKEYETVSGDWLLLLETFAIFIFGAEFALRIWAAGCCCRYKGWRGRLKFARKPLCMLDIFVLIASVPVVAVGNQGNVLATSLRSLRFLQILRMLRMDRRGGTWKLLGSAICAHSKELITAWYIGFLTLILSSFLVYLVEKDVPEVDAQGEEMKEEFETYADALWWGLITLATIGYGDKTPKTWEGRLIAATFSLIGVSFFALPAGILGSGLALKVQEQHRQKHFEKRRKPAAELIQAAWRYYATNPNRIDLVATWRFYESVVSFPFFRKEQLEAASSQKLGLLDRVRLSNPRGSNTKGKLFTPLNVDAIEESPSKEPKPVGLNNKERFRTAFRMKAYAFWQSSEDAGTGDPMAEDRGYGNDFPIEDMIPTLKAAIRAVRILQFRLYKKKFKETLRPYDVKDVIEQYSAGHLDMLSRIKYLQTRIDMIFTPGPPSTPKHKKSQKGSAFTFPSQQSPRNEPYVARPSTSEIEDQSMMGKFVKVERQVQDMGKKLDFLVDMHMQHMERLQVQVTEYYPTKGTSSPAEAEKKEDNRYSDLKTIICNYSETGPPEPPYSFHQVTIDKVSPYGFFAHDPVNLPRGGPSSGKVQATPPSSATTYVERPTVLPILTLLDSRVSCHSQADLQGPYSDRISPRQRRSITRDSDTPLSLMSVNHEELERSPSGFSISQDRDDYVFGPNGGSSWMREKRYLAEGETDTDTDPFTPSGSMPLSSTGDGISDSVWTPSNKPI

| Molecule | EC50 [µM] |
| --- | --- |
| CCN(C(=O)c1cnc(N2CCN(C)CC2)nc1C1(c2ccccc2)CC1)C1CCCCC1 [Example 27, 5-pyrimidinecarboxamide, N-cyclohexyl-N-ethyl-2-(4-methyl-1-piperazinyl)-4-(1-phenylcyclopropyl)-] | 0.47 |
| CC1CCC(Nc2ncc(C(=O)NCc3cccc4ccccc34)c(C3(c4ccccc4)CC3)n2)CC1 (centres unmarked) [Example 36, 5-pyrimidinecarboxamide, 2-[(4-methylcyclohexyl)amino]-N-(1-naphthalenylmethyl)-4-(1-phenylcyclopropyl)-] | 0.586 |
| CC1CCN(c2ncc(C(=O)NC(C)c3ccc(F)cc3)c(C3(c4ccccc4)CC3)n2)CC1 (centres unmarked) [Example 51, 5-pyrimidinecarboxamide, N-[1-(4-fluorophenyl)ethyl]-2-(4-methyl-1-piperidinyl)-4-(1-phenylcyclopropyl)-] | 0.672 |

Same assay, conditions: Table 3; thallium flux, HEK-293

| Molecule | EC50 [µM] |
| --- | --- |
| CC1CCC(Nc2ncc(C(=O)NCc3ccc(F)cc3F)c(C3(c4ccc(Cl)cc4)CCC3)n2)CC1 (centres unmarked) [Example 65, 5-pyrimidinecarboxamide, 4-[1-(4-chlorophenyl)cyclobutyl]-N-[(2,4-difluorophenyl)methyl]-2-[(4-methylcyclohexyl)amino]-] | 0.056 |

Same assay, conditions: hQ23 cells, thallium flux

| Molecule | EC50 [µM] |
| --- | --- |
| CC1CCC(Nc2ncc(C(=O)NCc3cccc4ccccc34)c(C3(c4ccccc4)CCCC3)n2)CC1 (centres unmarked) [Example 102, 5-pyrimidinecarboxamide, 2-[(4-methylcyclohexyl)amino]-N-(1-naphthalenylmethyl)-4-(1-phenylcyclopentyl)-] | 0.194 |
| CN1CCN(c2ncc(C(=O)NCc3ccc4c(c3)OCO4)c(C3(c4ccccc4)CCCC3)n2)CC1 [Example 91, 5-pyrimidinecarboxamide, N-(1,3-benzodioxol-5-ylmethyl)-2-(4-methyl-1-piperazinyl)-4-(1-phenylcyclopentyl)-] | 0.257 |
| O=C(NCc1ccc(Cl)cc1Cl)c1cnc(NC2CCCC2)nc1C1(c2ccccc2)CCCC1 [Example 115, 5-pyrimidinecarboxamide, 2-(cyclopentylamino)-N-[(2,4-dichlorophenyl)methyl]-4-(1-phenylcyclopentyl)-] | 0.136 |
| O=C(NCc1ccc(Cl)cc1Cl)c1cnc(N2CCCC2)nc1C1(c2ccc(Cl)cc2)CCCC1 [Example 178, 5-pyrimidinecarboxamide, 4-[1-(4-chlorophenyl)cyclopentyl]-N-[(2,4-dichlorophenyl)methyl]-2-(1-pyrrolidinyl)-] | 0.074 |
| 5-pyrimidinecarboxamide, 4-[1-(4-fluorophenyl)cyclopentyl]-N,N-bis(1-methylethyl)-2-(3-methyl-1-piperidinyl)- [Example 224] | 0.039 |
| CC1CCN(c2ncc(C(=O)NCc3ccc(Cl)c(Cl)c3)c(C3(c4ccc(Cl)cc4)CCCC3)n2)CC1 [Example 175, 5-pyrimidinecarboxamide, 4-[1-(4-chlorophenyl)cyclopentyl]-N-[(3,4-dichlorophenyl)methyl]-2-(4-methyl-1-piperidinyl)-] | 0.01 |
| CC1CCCN(C(=O)c2cnc(NC3CC3)nc2C2(c3ccc(Cl)cc3)CCCC2)C1 (centres unmarked) [Example 144, piperidine, 1-[[4-[1-(4-chlorophenyl)cyclopentyl]-2-(cyclopropylamino)-5-pyrimidinyl]carbonyl]-3-methyl-] | 0.884 |
| CN1CCN(c2ncc(C(=O)NCc3cc(F)cc(C(F)(F)F)c3)c(C3(c4ccccc4)CCCC3)n2)CC1 [Example 125, 5-pyrimidinecarboxamide, N-[[3-fluoro-5-(trifluoromethyl)phenyl]methyl]-2-(4-methyl-1-piperazinyl)-4-(1-phenylcyclopentyl)-] | 0.375 |
| CC(NC(=O)c1cnc(N2CCCC2)nc1C1(c2ccccc2)CCCC1)c1ccc(F)cc1 (centres unmarked) [Example 132, 5-pyrimidinecarboxamide, N-[1-(4-fluorophenyl)ethyl]-4-(1-phenylcyclopentyl)-2-(1-pyrrolidinyl)-] | 0.195 |
| CCC(C)Nc1ncc(C(=O)NC(C)c2ccc(F)cc2)c(C2(c3ccc(Cl)cc3)CCCC2)n1 (centres unmarked) [Example 200, 5-pyrimidinecarboxamide, 4-[1-(4-chlorophenyl)cyclopentyl]-N-[1-(4-fluorophenyl)ethyl]-2-[(1-methylpropyl)amino]-] | 0.911 |
| O=C(NCc1ccc2c(c1)OCO2)c1cnc(N2CCCC2)nc1C1(c2ccc(Cl)cc2)CCCC1 [Example 152, 5-pyrimidinecarboxamide, N-(1,3-benzodioxol-5-ylmethyl)-4-[1-(4-chlorophenyl)cyclopentyl]-2-(1-pyrrolidinyl)-] | 0.107 |
| CCC(C)Nc1ncc(C(=O)N(CC)Cc2ccccc2)c(C2(c3ccc(F)cc3)CCCC2)n1 (centres unmarked) [Example 231, 5-pyrimidinecarboxamide, N-ethyl-4-[1-(4-fluorophenyl)cyclopentyl]-2-[(1-methylpropyl)amino]-N-(phenylmethyl)-] | 0.786 |
| O=C(NCc1ccc(Cl)cc1Cl)c1cnc(NC2CC2)nc1C1(c2ccccc2)CCCC1 [Example 109, 5-pyrimidinecarboxamide, 2-(cyclopropylamino)-N-[(2,4-dichlorophenyl)methyl]-4-(1-phenylcyclopentyl)-] | 0.504 |
| O=C(NCc1ccc(Cl)cc1Cl)c1cnc(NC2CCCC2)nc1C1(c2ccc(Cl)cc2)CCCC1 [Example 185, 5-pyrimidinecarboxamide, 4-[1-(4-chlorophenyl)cyclopentyl]-2-(cyclopentylamino)-N-[(2,4-dichlorophenyl)methyl]-] | 0.01 |
| CCN(C)C(=O)c1cnc(N2CCC(C)CC2)nc1C1(c2ccc(F)cc2)CCCC1 [Example 227, 5-pyrimidinecarboxamide, N-ethyl-4-[1-(4-fluorophenyl)cyclopentyl]-N-methyl-2-(4-methyl-1-piperidinyl)-] | 0.882 |
| CN(CCc1ccccc1)C(=O)c1cnc(N2CCCC2)nc1C1(c2ccc(F)cc2)CCCC1 [Example 220, 5-pyrimidinecarboxamide, 4-[1-(4-fluorophenyl)cyclopentyl]-N-methyl-N-(2-phenylethyl)-2-(1-pyrrolidinyl)-] | 0.169 |
| CC1CCC(Nc2ncc(C(=O)NCc3ccc4c(c3)OCO4)c(C3(c4ccccc4)CCCC3)n2)CC1 (centres unmarked) [Example 90, 5-pyrimidinecarboxamide, N-(1,3-benzodioxol-5-ylmethyl)-2-[(4-methylcyclohexyl)amino]-4-(1-phenylcyclopentyl)-] | 0.22 |
| CN1CCC(N(C)c2ncc(C(=O)NCc3ccc(C(F)(F)F)cc3)c(C3(c4ccc(Cl)cc4)CCCC3)n2)CC1 [Example 204, 5-pyrimidinecarboxamide, 4-[1-(4-chlorophenyl)cyclopentyl]-2-[methyl(1-methyl-4-piperidinyl)amino]-N-[[4-(trifluoromethyl)phenyl]methyl]-] | 0.4 |
| CC1CCN(c2ncc(C(=O)N(C)Cc3ccccc3)c(C3(c4ccc(Cl)cc4)CCCC3)n2)CC1 [Example 140, 5-pyrimidinecarboxamide, 4-[1-(4-chlorophenyl)cyclopentyl]-N-methyl-2-(4-methyl-1-piperidinyl)-N-(phenylmethyl)-] | 0.246 |
| CC1CCC(Nc2ncc(C(=O)N(C)CCc3ccccc3)c(C3(c4ccc(F)cc4)CCCC3)n2)CC1 (centres unmarked) [Example 219, 5-pyrimidinecarboxamide, 4-[1-(4-fluorophenyl)cyclopentyl]-N-methyl-2-[(4-methylcyclohexyl)amino]-N-(2-phenylethyl)-] | 0.334 |
| CCC(C)Nc1ncc(C(=O)NCc2cccc3ccccc23)c(C2(c3ccccc3)CCCC2)n1 (centres unmarked) [Example 105, 5-pyrimidinecarboxamide, 2-[(1-methylpropyl)amino]-N-(1-naphthalenylmethyl)-4-(1-phenylcyclopentyl)-] | 0.604 |
| CN1CCN(c2ncc(C(=O)NCc3ccc(Cl)c(Cl)c3)c(C3(c4ccc(Cl)cc4)CCCC3)n2)CC1 [Example 173, 5-pyrimidinecarboxamide, 4-[1-(4-chlorophenyl)cyclopentyl]-N-[(3,4-dichlorophenyl)methyl]-2-(4-methyl-1-piperazinyl)-] | 0.82 |

Same assay, conditions: hQ23 cells, thallium flux assay

| Molecule | EC50 [µM] |
| --- | --- |
| CC(NC(=O)c1cnc(N2CCN(C)CC2)nc1C1(c2ccc(F)cc2)CCCC1)c1cccc2ccccc12 (centres unmarked) [Example 243, 5-pyrimidinecarboxamide, 4-[1-(4-fluorophenyl)cyclopentyl]-2-(4-methyl-1-piperazinyl)-N-[1-(1-naphthalenyl)ethyl]-] | 0.852 |
| O=C(NCc1ccc(F)cc1F)c1cnc(NC2CCCC2)nc1C1(c2ccc(F)cc2)CCCC1 [Example 273, 5-pyrimidinecarboxamide, 2-(cyclopentylamino)-N-[(2,4-difluorophenyl)methyl]-4-[1-(4-fluorophenyl)cyclopentyl]-] | 0.115 |
| CN1CCN(c2ncc(C(=O)NCc3ccc(F)cc3F)c(C3(c4ccc(F)cc4)CCCC3)n2)CC1 [Example 268, 5-pyrimidinecarboxamide, N-[(2,4-difluorophenyl)methyl]-4-[1-(4-fluorophenyl)cyclopentyl]-2-(4-methyl-1-piperazinyl)-] | 0.634 |
| CC1CCN(c2ncc(C(=O)NCc3ccc4c(c3)OCO4)c(C3(c4ccc(F)cc4)CCCC3)n2)CC1 [Example 237, 5-pyrimidinecarboxamide, N-(1,3-benzodioxol-5-ylmethyl)-4-[1-(4-fluorophenyl)cyclopentyl]-2-(4-methyl-1-piperidinyl)-] | 0.54 |
| CC1CCN(c2ncc(C(=O)NC(C)c3ccc(F)cc3)c(C3(c4ccc(F)cc4)CCCC3)n2)CC1 (centres unmarked) [Example 285, 5-pyrimidinecarboxamide, 4-[1-(4-fluorophenyl)cyclopentyl]-N-[1-(4-fluorophenyl)ethyl]-2-(4-methyl-1-piperidinyl)-] | 0.095 |
| CC1CCN(c2ncc(C(=O)NCc3ccc(F)cc3F)c(C3(c4ccc(F)cc4)CCCC3)n2)CC1 [Example 270, 5-pyrimidinecarboxamide, N-[(2,4-difluorophenyl)methyl]-4-[1-(4-fluorophenyl)cyclopentyl]-2-(4-methyl-1-piperidinyl)-] | 0.142 |
